In patent US11332463B2, “Spiropiperidine allosteric modulators of nicotinic acetylcholine receptors” (Merck Sharp & Dohme Corp., priority 2018, dated 2022):
Read-outs that look alike come from different tables or passages of the source.

Target: T1, human α7 nicotinic acetylcholine receptor (HEK cell line stably expressing human RIC-3 and human α7) (Homo sapiens, UniProt P36544)
T1 construct: host or cells: HEK cell line (PrecisION hnAChR α7/RIC-3)
Assay: Automated patch-clamp electrophysiology functional assay (Assay A), IonFlux HT, whole-cell population patch
Format: cell-based
Method: The α7 nAChR positive allosteric modulator (PAM) activity of the present compounds may be tested using assays known in the art. […] The assay was performed using the IonFlux HT in a whole-cell, population patch configuration. See Golden et al. Assay Drug Dev. Technol. […] The compounds were assessed for their ability to modulate the function of the human 7 nAChR stably expressed in a HEK cell line both in the presence, and in the absence of the natural 7 agonist acetylcholine. By performing a series of such measurements at different concentrations, the effective concentration of the 7 nAChR PAMs (EC50) was determined. See Spencer et al. Assay Drug Dev. Technol.
Direct activation of α7 (agonism), and potentiation of acetylcholine-evoked 7 currents was determined as follows:
Automated patch-clamp electrophysiology was performed using the IonFlux HT (Fluxion Biosciences Inc., San Francisco, Calif.) in the whole-cell, population patch configuration. Test compounds were assessed for their ability to modulate the function of the α7 nicotinic acetylcholine receptor both in the presence, and in the absence of the natural α7 agonist acetylcholine. […] Immediately prior to assay, cells were detached by first aspirating growth media, rinsing with Dulbecco's phosphate buffered saline, and then adding 10 mL of Accutase (Innovative Cell Technologies, San Diego, Calif.) to the flask and then incubating at 37° C. for 5 minutes. Detached cells were then recovered by the addition of 40 mL of CHO-serum-free media supplemented with 25 mM HEPES, and rocked gently in a 50 mL conical tube for 20 minutes prior to patch-clamp assay. After recovery, cells were pelleted by centrifugation at 1,000 RPM for 1 minute in a compact bench top centrifuge; recovery media was aspirated and cells were resuspended in external recording solution (150 mM NaCl, 5 mM KCl, 2 mM CaCl2), 1 mM MgCl2, 10 mM HEPES, 12 mM dextrose) to a density of 5.0×10^6 cells/mL. The cell suspension was added to the cell inlet wells on an IonFlux HT population patch plate which had previously been rinsed and primed with deionized H2O. Test compounds were serially diluted in DMSO and then resuspended to the final test concentration in external recording solution, with, or without 40 μM acetylcholine added to the external recording solution; test compounds were then transferred to the IonFlux HT population patch plate. Internal recording solution (110 mM TrisPO4, 28 mM TrisBase, 0.1 mM CaCl2, 2 mM MgCl2, 11 mM EGTA, 4 mM MgATP) was added to the internal recording solution inlet wells on the IonFlux HT patch plate previously loaded with cells and test compounds, and the plate loaded into the IonFlux HT instrument. A protocol was executed on the IonFlux HT to trap the cells, break into the cells, and establish the whole-cell recording configuration; cells were voltage-clamped at a holding potential of −60 mV for the duration of the experiment, all experiments were conducted at room temperature, and the IonFlux HT injection pressure was 8 psi for solution applications. Upon establishing the whole-cell configuration, external recording solution was perfused into the recording chambers for 120 seconds and then 40 μM acetylcholine was applied for 1 second and immediately washed off with external recording solution for 60 seconds. The 40 μM acetylcholine-evoked α7 current served as the current response to which subsequent test compound effects, in the presence, or in the absence of 40 μM acetylcholine would be quantified relative to. Next, test compounds were evaluated at multiple concentrations for their ability to induce, or modulate 7 current responses; three concentrations of test compound were evaluated in ascending dose fashion per recording.

[1] = HEK cells expressing human α7/RIC-3, test compound with or without 40 μM acetylcholine, holding potential −60 mV, room temperature, read-out: α7 nAChR Potency
[2] = automated patch-clamp electrophysiology functional assay (Assay A), read-out: α7 nAChR EC50

T1 sequence (P36544 23-502): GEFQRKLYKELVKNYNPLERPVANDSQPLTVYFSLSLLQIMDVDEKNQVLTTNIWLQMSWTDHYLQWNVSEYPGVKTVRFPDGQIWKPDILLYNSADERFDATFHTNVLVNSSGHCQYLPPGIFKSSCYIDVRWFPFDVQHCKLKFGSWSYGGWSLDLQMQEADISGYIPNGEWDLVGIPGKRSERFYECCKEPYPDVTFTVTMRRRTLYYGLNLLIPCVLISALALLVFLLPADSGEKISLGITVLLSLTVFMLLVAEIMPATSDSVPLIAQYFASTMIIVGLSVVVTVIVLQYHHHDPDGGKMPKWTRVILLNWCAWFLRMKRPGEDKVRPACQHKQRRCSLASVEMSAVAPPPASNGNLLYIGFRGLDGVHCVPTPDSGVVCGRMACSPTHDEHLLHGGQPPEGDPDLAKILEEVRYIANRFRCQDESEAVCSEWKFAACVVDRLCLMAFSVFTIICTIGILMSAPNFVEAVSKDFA

Row | SMILES | EC50 [1] | EC50 [2]
1 | NS(=O)(=O)N1CCC2(C(F)C1)C(c1nc(-c3conc3C3CC3)no1)C2(F)F (single isomer, unassigned) [Example I14] | 100 to 500 nM | 330 nM
2 | Cc1ccc(C)c(-c2nc(C3C(F)(F)C34C3CCC4CN(S(N)(=O)=O)C3)no2)c1 (single isomer, unassigned) [Example K1] | < 100 nM | 87 nM
3 | Cc1ccc(C)c(-c2noc([C@@H]3C(F)(F)C34CCN(S(C)(=O)=O)CC4)n2)c1 (stereo in doubt) [Example 32, 2-[3-(2,5-Dimethylphenyl)-1,2,4-oxadiazol-5-yl]-1,1-difluoro-6-(methylsulfonyl)-6-azaspiro[2.5]octane] | 500 to 5000 nM | 910 nM
4 | NS(=O)(=O)N1CCC2(CC1)[C@H](c1ccn(-c3ccc(F)cc3C(F)(F)F)n1)C2(F)F (stereo in doubt) [Example 36, 1,1-Difluoro-2-{1-[4-fluoro-2-(trifluoromethyl)phenyl]-1H-pyrazol-3-yl}-6-azaspiro[2.5]octane-6-sulfonamide] | 500 to 5000 nM | 890 nM
5 | NS(=O)(=O)N1CCC2(CC1)[C@H](c1nsc(-c3ccc(F)cc3C(F)(F)F)n1)C2(F)F (stereo in doubt) [Example 37, 1,1-Difluoro-2-{5-[4-fluoro-2-(trifluoromethyl)phenyl]-1,2,4-thiadiazol-3-yl}-6-azaspiro[2.5]octane-6-sulfonamide] | 500 to 5000 nM | 1200 nM
6 | Cc1ccc(C(F)(F)F)cc1-c1nc([C@@H]2CC23CCN(S(N)(=O)=O)CC3)no1 [Example 1, (1R)-1-{5-[2-Methyl-5-(trifluoromethyl)phenyl]-1,2,4-oxadiazol-3-yl}-6-azaspiro[2.5]octane-6-sulfonamide] | < 100 nM | 98 nM
7 | Cc1ccc(C)c(-c2nc([C@@H]3CC34CCN(S(N)(=O)=O)CC4)no2)c1 [Example 2, (1R)-1-[5-(2,5-Dimethylphenyl)-1,2,4-oxadiazol-3-yl]-6-azaspiro[2.5]octane-6-sulfonamide] | < 100 nM | 82 nM
8 | NS(=O)(=O)N1CCC2(CC2c2nc(-c3cccc(OCC(F)(F)F)c3)no2)C(F)(F)C1 (stereo not drawn) [Example 3, 4,4-Difluoro-1-{3-[3-(2,2,2-trifluoroethoxy)phenyl]-1,2,4-oxadiazol-5-yl}-6-azaspiro[2.5]octane-6-sulfonamide] | 500 to 5000 nM | 1300 nM
9 | NS(=O)(=O)N1CCC2(CC2c2nc(-c3cccc(OC(F)F)c3)no2)C(F)C1 (stereo not drawn) [Example 4, 1-{3-[3-(Difluoromethoxy)phenyl]-1,2,4-oxadiazol-5-yl}-4-fluoro-6-azaspiro[2.5]octane-6-sulfonamide] | 100 to 500 nM | 350 nM
10 | NS(=O)(=O)N1CCC2(CC1)C[C@H]2c1nc(-c2ccc(F)cc2C(F)(F)F)no1 [Example 5, (1R)-1-{3-[4-Fluoro-2-(trifluoromethyl)phenyl]-1,2,4-oxadiazol-5-yl}-6-azaspiro[2.5]octane-6-sulfonamide] | 500 to 5000 nM | 1200 nM
11 | CC1CN(S(N)(=O)=O)CCC12CC2c1nc(-c2ccc(F)cc2C(F)(F)F)no1 (stereo not drawn) [Example 6, 1-{3-[4-Fluoro-2-(trifluoromethyl)phenyl]-1,2,4-oxadiazol-5-yl}-4-methyl-6-azaspiro[2.5]octane-6-sulfonamide] | 100 to 500 nM | 280 nM
12 | NS(=O)(=O)N1CCC2(CC1)C[C@H]2c1csc(-c2cccc(OC(F)(F)F)c2)n1 [Example 7, (1R)-1-{2-[3-(Trifluoromethoxy)phenyl]-1,3-thiazol-4-yl}-6-azaspiro[2.5]octane-6-sulfonamide] | 500 to 5000 nM | 1100 nM
13 | Cc1cnn(CC(F)(F)F)c1-c1nc([C@@H]2CC23CCN(S(N)(=O)=O)CC3)no1 [Example 8, (1R)-1-{5-[4-Methyl-1-(2,2,2-trifluoroethyl)-1H-pyrazol-5-yl]-1,2,4-oxadiazol-3-yl}-6-azaspiro[2.5]octane-6-sulfonamide] | 100 to 500 nM | 230 nM
14 | Cc1cnn(C)c1-c1nc([C@@H]2C(F)(F)C23CCN(S(N)(=O)=O)CC3)no1 [Example 9, (2R)-2-[5-(1,4-Dimethyl-1H-pyrazol-5-yl)-1,2,4-oxadiazol-3-yl]-1,1-difluoro-6-azaspiro[2.5]octane-6-sulfonamide] | < 100 nM | 75 nM
15 | NS(=O)(=O)N1CCC2(CC1)[C@H](c1noc(-c3ccnc(OC(F)F)c3)n1)C2(F)F [Example 10, (2R)-2-{5-[2-(Difluoromethoxy)pyridin-4-yl]-1,2,4-oxadiazol-3-yl}-1,1-difluoro-6-azaspiro[2.5]octane-6-sulfonamide] | 100 to 500 nM | 220 nM
16 | NS(=O)(=O)N1CCC2(CC1)[C@H](c1nc(-c3conc3C3CC3)no1)C2(F)F [Example 11, (2R)-2-[3-(3-Cyclopropylisoxazol-4-yl)-1,2,4-oxadiazol-5-yl]-1,1-difluoro-6-azaspiro[2.5]octane-6-sulfonamide] | < 100 nM | 58 nM
17 | NS(=O)(=O)N1CCC2(CC1)[C@H](c1nc(-c3ccnn3CC(F)(F)F)no1)C2(F)F [Example 12, (2R)-1,1-Difluoro-2-{3-[1-(2,2,2-trifluoroethyl)-1H-pyrazol-5-yl]-1,2,4-oxadiazol-5-yl}-6-azaspiro[2.5]octane-6-sulfonamide] | 100 to 500 nM | 220 nM
18 | Cc1cnc(OC(F)F)cc1-c1nc([C@@H]2C(F)(F)C23CCN(S(N)(=O)=O)CC3)no1 [Example 13, (2R)-2-{5-[2-(Difluoromethoxy)-5-methylpyridin-4-yl]-1,2,4-oxadiazol-3-yl}-1,1-difluoro-6-azaspiro[2.5]octane-6-sulfonamide] | < 100 nM | 73 nM
19 | Cn1ncc(C(F)(F)F)c1-c1nc([C@@H]2C(F)(F)C23CCN(S(N)(=O)=O)CC3)no1 [Example 14, (2R)-1,1-Difluoro-2-{5-[1-methyl-4-(trifluoromethyl)-1H-pyrazol-5-yl]-1,2,4-oxadiazol-3-yl}-6-azaspiro[2.5]octane-6-sulfonamide] | < 100 nM | 49 nM
20 | NS(=O)(=O)N1CCC2(CC1)C[C@H]2c1cnn(-c2cccc(OC(F)(F)F)c2)c1 [Example 15, (1R)-1-{1-[3-(Trifluoromethoxy)phenyl]-1H-pyrazol-4-yl}-6-azaspiro[2.5]octane-6-sulfonamide] | 100 to 500 nM | 330 nM
21 | NS(=O)(=O)N1CCC2(CC1)[C@H](c1nnc(-c3ccnn3C3CC3)o1)C2(F)F [Example 16, (2R)-2-[5-(1-Cyclopropyl-1H-pyrazol-5-yl)-1,3,4-oxadiazol-2-yl]-1,1-difluoro-6-azaspiro[2.5]octane-6-sulfonamide] | 100 to 500 nM | 450 nM
22 | NS(=O)(=O)N1CCC2(CC1)[C@H](c1nnc(-c3ccnn3C3CC3)s1)C2(F)F [Example 17, (2S)-2-[5-(1-Cyclopropyl-1H-pyrazol-5-yl)-1,3,4-thiadiazol-2-yl]-1,1-difluoro-6-azaspiro[2.5]octane-6-sulfonamide] | 500 to 5000 nM | 550 nM
23 | NS(=O)(=O)N1CCC2(CC1)[C@H](c1noc(-c3cnn4c3CSCC4)n1)C2(F)F [Example 18, (2R)-2-[5-(6,7-Dihydro-4H-pyrazolo[5,1-c][1,4]thiazin-3-yl)-1,2,4-oxadiazol-3-yl]-1,1-difluoro-6-azaspiro[2.5]octane-6-sulfonamide] | 500 to 5000 nM | 800 nM
24 | Cn1cc(-c2nc([C@@H]3C(F)(F)C34CCN(S(N)(=O)=O)CC4)no2)c(C(F)(F)F)n1 [Example 19, (2R)-1,1-Difluoro-2-{5-[1-methyl-3-(trifluoromethyl)-1H-pyrazol-4-yl]-1,2,4-oxadiazol-3-yl}-6-azaspiro[2.5]octane-6-sulfonamide] | 100 to 500 nM | 240 nM
